# Laboratory results as given in US9790169B2, “IDO inhibitors” (BRISTOL-MYERS SQUIBB COMPANY, priority 2015, dated 2017).
# Target: human IDO1 (Homo sapiens, UniProt P14902)
# Assay: Assessment of human IDO-1 inhibitory activity in HEK cells (human IDO1/HEK293 cells, kynurenine read-out with Ehrlich reagent, absorbance 490 nm)
# Format: cell-based
# Design: expressed in transfected cells
# Conditions: HEK Human IDO-1 cellular assay
# Description: Exemplary compounds were tested for inhibition of IDO activity.
# Assessment of Human IDO-1 Inhibitory Activity in HEK Cells
# HEK293 cells were transfected with a pCDNA-based mammalian expression vector harboring human IDO1 cDNA (NM 002164.2) by electroporation. They were cultured in medium (DMEM with 10% FBS) containing 1 mg/ml G418 for two weeks. Clones of HEK293 cells that stably expressed human IDO1 protein were selected and expanded for IDO inhibition assay.
# The human IDO1/HEK293 cells were seeded at 10,000 cells per 50 μL per well with RPMI/phenol red free media contains 10% FBS in a 384-well black wall clear bottom tissue culture plate (Matrix Technologies LLC) 100 nL of certain concentration of compound was then added to each well using ECHO liquid handling systems. The cells were incubated for 20 hours in 37° C. incubator with 5% CO2.
# The compound treatments were stopped by adding trichloroacetic acid (Sigma-Aldrich) to a final concentration at 0.2%. The cell plate was further incubated at 50° C. for 30 minute. The equal volume supernatant (20 μL) and 0.2% (w/v) Ehrlich reagent (4-dimethylaminobenzaldehyde, Sigma-Aldrich) in glacial acetic acid were mixed in a new clear bottom 384-well plate. This plate was then incubated at room temperature for 30 minute. The absorbance at 490 nm was measured on Envision plate reader.
# Compound IC50 values were calculated using the counts of 500 nM of a reference standard treatment as one hundred percent inhibition, and counts of no compound but DMSO treatment as zero percent inhibition.
# Sequence of human IDO1 (P14902 whole entry): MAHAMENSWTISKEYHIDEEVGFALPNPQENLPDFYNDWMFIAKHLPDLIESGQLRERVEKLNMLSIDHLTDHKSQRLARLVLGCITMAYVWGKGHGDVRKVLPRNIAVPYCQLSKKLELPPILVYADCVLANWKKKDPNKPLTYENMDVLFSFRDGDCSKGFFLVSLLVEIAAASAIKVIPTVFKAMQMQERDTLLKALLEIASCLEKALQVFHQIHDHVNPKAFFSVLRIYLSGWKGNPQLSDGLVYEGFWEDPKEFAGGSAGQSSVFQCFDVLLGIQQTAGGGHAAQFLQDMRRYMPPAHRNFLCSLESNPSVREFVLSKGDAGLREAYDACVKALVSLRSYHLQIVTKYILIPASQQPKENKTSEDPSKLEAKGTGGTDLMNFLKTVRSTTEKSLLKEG
row,Structure (SMILES),IC50 [nM]
1,"CCOc1ncc(Nc2cc([C@@H](CC)CC(=O)O)ccc2N(CC)C2CCCCC2)cn1 (single isomer, unassigned) [Example 281]",< 50
2,"CCC(CC(=O)O)c1cc(F)c(N(CC(C)C)CC(C)C)c(NC(=O)Nc2ccc(Cl)cc2F)c1 (single isomer, unassigned) [981-1]",< 5
3,"CC[C@H](CC(=O)O)c1ccc(N(CC(C)C)C2CCS(=O)(=O)CC2)c(NC(=O)Nc2cc(C)on2)c1 (single isomer, unassigned) [Example 213]",> 50
4,"CC[C@H](CC(=O)O)c1ccc(N2CCOC[C@@H]2C(C)C)c(NC(=O)Nc2ccc(OC)cc2F)c1 (single isomer, unassigned) [Example 87]",> 50
5,"COCC(CC(=O)O)c1ccc(N(CC(C)C)C2CCCCC2)c(NC(=O)Cc2ccc(Cl)cc2F)c1 (single isomer, unassigned) [Example 1245, 3-(3-(2-(4-Chloro-2-fluorophenyl)acetamido)-4-(cyclohexyl(isobutyl)amino)phenyl)-4-methoxybutanoic acid]",< 5
6,"CC[C@H](CC(=O)O)c1ccc(N(CC2CC2)CC(C)(C)O)c(Nc2ccc(F)cc2)c1 (single isomer, unassigned) [Example 273]",< 50
7,"CCC(CC(=O)O)c1cc(F)c(N(CC(C)C)CC(C)C)c(Nc2ccc3c(c2)OC(F)(F)O3)c1 (single isomer, unassigned) [Example 101, 3-(3-((2,2-difluorobenzo [d][1,3]dioxol-5-yl)amino)-4-(diisobutylamino)-5-fluorophenyl)pentanoic acid]",< 5
8,"CC[C@H](CC(=O)O)c1ccc(N(CC)C2CCCCC2)c(Nc2ccc(Cl)cc2)c1 (single isomer, unassigned) [Example 285]",< 5
9,"CCN(c1ccc(C(CC(=O)O)c2ccccc2)cc1NC(=O)Nc1ccc(OC)cc1F)C1CCOCC1 (single isomer, unassigned) [Example 586, 3-(4-(ethyl(tetrahydro-2H-pyran-4-yl)amino)-3-(3-(2-fluoro-4-methoxyphenyl)ureido)phenyl)-3-phenylpropanoic acid]",> 50
10,"CC[C@H](CC(=O)O)c1ccc(N(CC)C2CCOCC2)c(NC(=O)Nc2ccc(Cl)nc2)c1 (single isomer, unassigned) [Example 532]",< 50
11,"COCC(CC(=O)O)c1ccc(N(CC(C)C)C2CCOCC2)c(NC(=O)Nc2ccc(C)cc2)c1 (single isomer, unassigned) [Example 1216, 3-(4-(Isobutyl(tetrahydro-2H-pyran-4-yl)amino)-3-(3-(p-tolyl)ureido)phenyl)-4-methoxybutanoic acid]",< 50
12,"Cc1ccc(CC(=O)Nc2cc(C(C)CC(=O)O)ccc2N(CC(C)C)CC(C)C)cc1 (single isomer, unassigned) [Example 953, 3-(4-(Diisobutylamino)-3-(2-(p-tolyl)acetamido)phenyl)butanoic acid]",> 50
13,"COCC(CC(=O)O)c1cc(F)c(N(CC(C)C)CC(C)C)c(NC(=O)Nc2ccc(Cl)cc2F)c1 (single isomer, unassigned) [Example 1182, 3-(3-(3-(4-Chloro-2-fluorophenyl)ureido)-4-(diisobutylamino)-5-fluorophenyl)-4-methoxybutanoic acid]",< 5
14,"CCN(c1ccc(C(C)(C)CC(=O)O)cc1NC(=O)Nc1ccc(C)cc1)C1CCOCC1 [Example 167, 3-(4-(Ethyl(tetrahydro-2H-pyran-4-yl)amino)-3-(3-(p-tolyl)ureido)phenyl)-3-methylbutanoic acid]",< 50
15,"Cc1cc(NC(=O)Nc2cc(C(CC(=O)O)C3CC3)ccc2N(CC(C)C)C2CCOCC2)no1 (racemic) [Example 1200, (+/−)-3-Cyclopropyl-3-(4-(isobutyl(tetrahydro-2H-pyran-4-yl)amino)-3-(3-(5-methylisoxazol-3-yl)ureido)phenyl)propanoic acid]",< 50
16,"CCc1ccc(Nc2cc([C@@H](COC)CC(=O)O)ccc2N(CC)C2CCOCC2)cc1 (single isomer, unassigned) [Example 374]",< 5
17,"CCC(CC(=O)O)c1cc(NC(=O)Nc2cnc(C)nc2)c(N(CC(C)C)C2CCCCC2)cc1F (racemic) [Example 1125, (±)-3-(4-(Cyclohexyl(isobutyl)amino)-2-fluoro-5-(3-(2-methylpyrimidin-5-yl)ureido)phenyl)pentanoic acid]",< 5
18,"CC(CC(=O)O)c1ccc(N2C[C@@H](C)O[C@@H](C)C2)c(Nc2ccc(Cl)cc2)c1 (single isomer, unassigned) [Example 739]",> 50
19,"CCc1cnc(Nc2cc([C@@H](CC)CC(=O)O)ccc2N(CC(C)(C)O)C2CCCCC2)nc1 (single isomer, unassigned) [Example 230]",< 50

row,Structure (SMILES),IC50 [nM]
1,"CCOc1ccc(NC(=O)Nc2cc([C@@H](COC)CC(=O)O)ccc2N(CC)C2CCOCC2)cc1 (single isomer, unassigned) [Example 432]",> 50
2,"CCOc1ncc(Nc2cc([C@H](CC)CC(=O)O)ccc2N(CC(C)(C)O)C2CCOCC2)cn1 (single isomer, unassigned) [Example 202]",> 50
3,"Cc1ccc(CC(=O)Nc2cc(C(C)CC(=O)O)ccc2N(CC(C)C)CC(C)C)cc1 (single isomer, unassigned) [Example 954, 3-(4-(Diisobutylamino)-3-(2-(p-tolyl)acetamido)phenyl)butanoic acid]",< 50
4,"CCOc1ncc(Nc2cc([C@H](CC)CC(=O)O)ccc2N(CC(C)(C)O)C2CCCCC2)cn1 (single isomer, unassigned) [Example 240]",< 50
5,"COCC(CC(=O)O)c1ccc(N(CC(C)C)C2CCCCC2)c(NC(=O)Nc2cncnc2)c1 (single isomer, unassigned) [991-2]",< 5
6,"CC[C@@H](CC(=O)O)c1ccc(N2CCOC[C@@H]2C(C)C)c(Nc2ccc3nc(C)sc3c2)c1 (single isomer, unassigned) [Example 80]",> 50
7,"CCC(CC(=O)O)c1ccc(N(CC2CC2)C2CCOCC2)c(Nc2ccc3nc(C)sc3c2)c1 (single isomer, unassigned) [Example 701, 3-(4-((Cyclopropylmethyl)(tetrahydro-2H-pyran-4-yl)amino)-3-((2-methylbenzo[d]thiazol-6-yl)amino)phenyl)pentanoic acid]",< 50
8,"CCC(CC(=O)O)c1cc(F)c(N(CC(C)C)CC(C)C)c(NC(=O)Nc2ccc(C)c(F)c2)c1 (racemic) [Example 974, (+/−)-3-(4-(diisobutylamino)-3-fluoro-5-(3-(3-fluoro-4-methylphenyl)ureido)phenyl)pentanoic acid]",< 50
9,"CC[C@H](CC(=O)O)c1ccc(N(CC)C2CCOCC2)c(Nc2cnc(OC)nc2)c1 (single isomer, unassigned) [Example 519]",< 5
10,"CCOc1ncc(Nc2cc(C(CC)CC(=O)O)ccc2N2CCC[C@H]2C(C)(C)O)cn1 (single isomer, unassigned) [Example 823]",< 50
11,"CCCN(CC1CC1)c1ccc(C(CC)CC(=O)O)cc1Nc1cnc(OCC)nc1 (single isomer, unassigned) [Example 660, 3-(4-((cyclopropylmethyl)(propyl)amino)-3-((2-ethoxypyrimidin-5-yl)amino)phenyl)pentanoic acid]",< 5
12,"CCCN(c1ccc([C@@H](COC)CC(=O)O)cc1Nc1ccc2nc(C)sc2c1)C1CCOCC1 (single isomer, unassigned) [Example 560]",< 50
13,"CC[C@H](CC(=O)O)c1ccc(N(CC(C)(C)O)C2CCOCC2)c(Nc2ccc3c(c2)OC(F)(F)O3)c1 (single isomer, unassigned) [Example 204]",< 5
14,"CCC(CC(=O)O)c1ccc(N(CC(C)C)CC(C)C)c(NC(=O)Cc2ccc(C)cc2)c1 (racemic) [Example 949, (+/−)-3-(4-(Diisobutylamino)-3-(2-(p-tolyl)acetamido)phenyl)pentanoic acid]",< 5
15,"CCN(c1ccc(C(C)CC(=O)O)cc1Nc1ccc2nc(C)sc2c1)C1CCOCC1 (single isomer, unassigned) [Example 617, 3-(4-(ethyl(tetrahydro-2H-pyran-4-yl)amino)-3-((2-methylbenzo[d]thiazol-6-yl)amino)phenyl)butanoic acid]",< 50
16,"CC(CC(=O)O)c1ccc(N(CC(C)(C)O)C2CCOCC2)c(Nc2ccc(Cl)cc2)c1 (single isomer, unassigned) [Example 195, 3-(3-((4-Chlorophenyl)amino)-4-((2-hydroxy-2-methylpropyl)(tetrahydro-2H-pyran-4-yl)amino)phenyl)butanoic acid]",< 5
17,"CCC(CC(=O)O)c1ccc(N(CC(C)C)C(C)C)c(Nc2ccc3nc(C)sc3c2)c1 (single isomer, unassigned) [Example 729, 3-(4-(isobutyl(isopropyl)amino)-3-((2-methylbenzo[d]thiazol-6-yl)amino)phenyl)pentanoic acid]",> 50
18,"COCC(CC(=O)O)c1ccc(N(CC2CC2)C2CCOCC2)c(Nc2ccc(C#N)cc2)c1 (single isomer, unassigned) [Example 687, 3-(3-((4-cyanophenyl)amino)-4-((cyclopropylmethyl) (tetrahydro-2H-pyran-4-yl)amino)phenyl)-4-methoxybutanoic acid]",< 50
19,"CC[C@H](CC(=O)O)c1ccc(N(CC(C)(C)O)C2CCCCC2)c(Nc2ccc(OC(F)F)cc2)c1 (single isomer, unassigned) [Example 237]",< 5
